The source of these data is publication PMC3040260 (Biochemistry, 2011).

Where “and” joins values, the source holds several entries; their conditions need not be identical. Equal values may be shown once.

Assay [1] concerns the target T1, PaMTIP (Pseudomonas aeruginosa, UniProt Q9HZK1). The experiment in a line: PaMTIP inhibition assay. The assay is classed as biochemical.
In assay [2] the target is T1, PaMTIP. The assay is classed as biochemical.
Setting [3] is: initial phase, 1 nM PaMTIP, 2 mM MTI, 25 °C, pH 7.4.
Where [4] appears, read: second binding phase after slow-onset, 1 nM PaMTIP, 2 mM MTI, 25 °C, pH 7.4.
Setting [5] is: phosphorolysis, 25 °C, 100 mM Hepes pH 7.4, 100 mM phosphate.

One may read the Ki as the dissociation constant of the complex between target and ligand, obtained from inhibition or displacement. The low end stands for higher affinity, the high end for lower affinity. As usually defined, the kcat is the number of substrate molecules converted per active site and unit of time at saturation. What is called Km is the concentration of substrate that gives half-maximal velocity.

T1 sequence (Q9HZK1 whole entry): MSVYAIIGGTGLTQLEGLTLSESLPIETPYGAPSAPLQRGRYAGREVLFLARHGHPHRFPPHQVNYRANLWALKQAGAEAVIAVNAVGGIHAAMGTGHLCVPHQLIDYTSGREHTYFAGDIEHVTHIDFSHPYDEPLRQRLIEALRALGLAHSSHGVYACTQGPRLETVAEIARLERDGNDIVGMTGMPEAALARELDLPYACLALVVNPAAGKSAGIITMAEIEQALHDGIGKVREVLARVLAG

For `CSC[C@H]1CN(Cc2c[nH]c3c(=O)[nH]cnc23)C[C@@H]1O` [MT-DADMe-ImmH, 5'-methylthio-DADMe-ImmH], the results for the Ki in assay [1] (setting [3]) and in assay [1] (setting [4]) were 0.8 ± 0.1 nM and 0.34 ± 0.02 nM, respectively.
Regarding `O=c1[nH]cnc2c1ncn2[C@@H]1O[C@H](CO)[C@@H](O)[C@H]1O` [inosine], the kcat in assay [2] (setting [5]) was 0.57 s⁻¹ and 0.57 ± 0.04 s⁻¹.
As to 5'-methylthioadenosine [MTA], in assay [2] (setting [5]), the kcat was < 10^−4 s^−1. The compound also registered a Ki in assay [1] (competitive inhibitor of MTI, 200 µM MTI) of 70000 ± 20000 nM.
`O=c1[nH]cnc2c([C@@H]3N[C@H](CSc4ccccc4)[C@@H](O)[C@H]3O)c[nH]c12` [PhT-ImmH, 5'-phenylthio-ImmH]: in assay [1] (PaMTIP), the slow-onset inhibition result is given as “induces slow-onset inhibition”. For the same compound, the inhibition constant Ki was found to be 0.66 ± 0.09 nM in assay [1] (setting [3]) and 0.035 ± 0.003 nM in assay [1] (setting [4]).
Take `Nc1ncnc2c1ncn2[C@@H]1O[C@H](CO)[C@@H](O)[C@H]1O` [adenosine]: the kcat in assay [2] (setting [5]) is 0.0549 s⁻¹ and 0.0549 ± 0.0005 s⁻¹. In addition, the “fold decrease of kcat/Km in comparison with MTI” value in assay [2] (relative to MTI) is listed as 750 fold.
Regarding `CSC[C@H]1N[C@@H](c2c[nH]c3c(=O)[nH]cnc23)[C@H](O)[C@@H]1O` [MT-ImmH, 5'-methylthio-ImmH], in assay [1] (PaMTIP), the “fold tighter binding than MT-DADMe-ImmH (Ki*)” value is recorded as 4 fold. The Ki turned out to be 0.84 ± 0.05 nM in assay [1] (setting [3]) and 0.076 ± 0.005 nM in assay [1] (setting [4]).
5'-methylthioinosine [MTI]: in assay [2] (hydrolysis to hypoxanthine and 5-methylthioribose), the slow hydrolysis rate came out at 3.8e-05 s⁻¹. For the same compound, in assay [2] (setting [5]), the Km turned out to be 2.6 ± 0.4 µM; the kcat was 4.8 s⁻¹ and 4.8 ± 0.2 s⁻¹.
